Patent US7722893B2, “Use of substitute 2,4-bis (alkylamino) pyrimidines or quinzolines as antimicrobials” (Ciba Specialty Chemicals Corporation, priority 2003, dated 2010)
One block for each molecule: values may come before it.

Legend:
[1] = test system: Aspergillus niger ATCC 6275; experiment: MIC of a broadened organism spectrum (agar); type: cell-based; conditions: Sabouraud 4% glucose agar, 3 days at 28° C.; for MIC: ATCC6275, 72 h, read-out: minimum inhibiting concentration MIC
Source text: (§1) Determination of the Minimum Inhibiting Concentration MIC [ppm] of a Broadened Organism Spectrum
(§2) • Medium: Casein/soybean flour peptone agar (Merck) • *Sabouraud 4% glucose agar (Merck) • Dilution medium: sterile 0.85% NaCl solution • Test organisms: Staphylococcus aureus ATCC 6853 and 9144 • Staphylococcus epidermidis ATCC 12228 • C. xerosis ATCC 373 ** • C. minutissimum ATCC 23348 • Proplonibacterium acnes ATCC 6919 • Escherichia coli ATCC 10536 and NCTC 8196 • Proteus vulgaris ATCC 6896 • Klebsiella pneumoniae ATCC 4352 • Salmonella choleraesuis ATCC 9184 • Pseudomonas aeruginosa ATCC 15442 • *Candida albicans ATCC 10231 • *Aspergillus niger ATCC 6275 • Incubation: 24 hours at 37° C. • *3 days at 28° C. • Test solution: 1% stock solutions of all the test substances in a suitable solvent are prepared and diluted in serial dilutions (1:10, 1:100 and 1:1000 dilution), where possible diluted to such an extent that the end concentrations in agar are from 500 ppm to 10 ppm. Test principle:
(§3) 0.3 ml of the dilution stage in question is mixed with 15 ml of still-liquid nutrient medium.
(§4) When the nutrient substrate has solidified, 10 μl portions of a suitable organism dilution of the test strains in 0.85% NaCl solution are spotted onto the agar medium: […]

[2] = test system: C. minutissimum ATCC 23348; experiment: MIC of a broadened organism spectrum (agar); type: cell-based; conditions: 3 days incubation (Table 3a); for MIC: Corynebacterium minutissimum, ATCC23348, 72 h, read-out: minimum inhibiting concentration MIC
Source text: as §1, §2, §3, §4

C. xerosis ATCC 373 = experiment: MIC of a broadened organism spectrum (agar); type: cell-based; conditions: 3 days incubation; for MIC: Corynebacterium xerosis, ATCC373, 72 h, read-out: minimum inhibiting concentration MIC
Source text: as §1, §2, §3, §4

[3] = test system: Candida albicans ATCC 10231; experiment: MIC of a broadened organism spectrum (agar); type: cell-based; conditions: Sabouraud 4% glucose agar, 3 days at 28° C.; for MIC: ATCC10231, 72 h, read-out: minimum inhibiting concentration MIC
Source text: as §1, §2, §3, §4

[4] = test system: Escherichia coli ATCC 10536; experiment: MIC of a broadened organism spectrum (agar); type: cell-based; conditions: for MIC: ATCC10536, 24 hours at 37° C., read-out: minimum inhibiting concentration MIC
Source text: as §1, §2, §3, §4

[5] = test system: Escherichia coli NCTC 8196; experiment: MIC of a broadened organism spectrum (agar); type: cell-based; conditions: for MIC: NCTC8196, 24 hours at 37° C., read-out: minimum inhibiting concentration MIC
Source text: as §1, §2, §3, §4

[6] = test system: Klebsiella pneumoniae ATCC 4352; experiment: MIC of a broadened organism spectrum (agar); type: cell-based; conditions: for MIC: ATCC4352, 24 hours at 37° C., read-out: minimum inhibiting concentration MIC
Source text: as §1, §2, §3, §4

[7] = test system: Propionibacterium acnes ATCC 6919; experiment: MIC of a broadened organism spectrum (agar); type: cell-based; conditions: 3 days incubation under anaerobic conditions; for MIC: Cutibacterium acnes, ATCC6919, 72 h, read-out: minimum inhibiting concentration MIC
Source text: as §1, §2, §3, §4

[8] = test system: Proteus vulgaris ATCC 6896; experiment: MIC of a broadened organism spectrum (agar); type: cell-based; conditions: for MIC: ATCC6896, 24 hours at 37° C., read-out: minimum inhibiting concentration MIC
Source text: as §1, §2, §3, §4

[9] = test system: Pseudomonas aeruginosa ATCC 15442; experiment: MIC of a broadened organism spectrum (agar); type: cell-based; conditions: for MIC: ATCC15442, 24 hours at 37° C., read-out: minimum inhibiting concentration MIC
Source text: as §1, §2, §3, §4

[10] = test system: Salmonella choleraesuis ATCC 9184; experiment: MIC of a broadened organism spectrum (agar); type: cell-based; conditions: 24 hours at 37° C.; for MIC: Salmonella enterica, read-out: minimum inhibiting concentration MIC
Source text: as §1, §2, §3, §4

[11] = test system: Staphylococcus aureus ATCC 6538; experiment: MIC of a broadened organism spectrum (agar); type: cell-based; conditions: for MIC: ATCC6538, 24 hours at 37° C., read-out: minimum inhibiting concentration MIC
Source text: as §1, §2, §3, §4

[12] = test system: Staphylococcus aureus ATCC 9144; experiment: MIC of a broadened organism spectrum (agar); type: cell-based; conditions: for MIC: ATCC9144, 24 hours at 37° C., read-out: minimum inhibiting concentration MIC
Source text: as §1, §2, §3, §4

[13] = test system: Staphylococcus epidermidis ATCC 12228; experiment: MIC of a broadened organism spectrum (agar); type: cell-based; conditions: for MIC: ATCC12228, 24 hours at 37° C., read-out: minimum inhibiting concentration MIC
Source text: as §1, §2, §3, §4

S. gordonii ATCC 10558 = experiment: MIC of a broadened organism spectrum: oral organisms; type: cell-based, Streptococcus gordonil; conditions: for MIC: Streptococcus gordonii, ATCC10558, 24 hours aerobic with 10% CO2, read-out: minimum inhibiting concentration MIC, oral organisms
Source text: (§5) Determination of the Minimum Inhibiting Concentration MIC (ppm) of a Broadened Organism Spectrum: Oral Organisms
(§6) • Medium: thioglycolate bouillon with hemin and menadione Columbia bouillon with hemin and menadione for P. gingivalis and P. nigrescens • Dilution medium: the appropriate amount of the substances was pipetted directly into the medium. • Test organisms: Actinobacillus actinomycetemcomitans ATCC 43718 • Streptococcus gordonil ATCC 10558 • Streptococcus mutans ATCC 33402 • Actinomyces viscosus ATCC 43146 • Fusobacterium nucleatum subsp. polymorphum ATCC 10953 • Porphyromonas gingivalis ATCC 33277 • Prevotella nigrescens ATCC 33563 • Incubation: 7-10 days at 37° C anaerobic, or 24 hours aerobic with 10% CO2 for Streptococci and A. actinomycetemcomitans • Test solution: Stock solutions of all the test substances in ethanol at 1500 ppm (w/w) are used. Test Principle:
(§7) Bacteria are removed from blood agar plates using cotton wool buds and a suitable optical density (McFarland 0.5) is adjusted in an appropriate medium; that solution is used undiluted for F. nucleatum and P. nigrescens, and in a dilution of 1:20 for the other strains. 0.1 ml of bacterial culture is added per 2 ml of active ingredient solution and incubation is carried out as described above.

[14] = test system: Actinobacillus actinomycetemcomitans ATCC 43718; experiment: as above; type: cell-based; conditions: A. actinomycetemcomitans ATCC 43718, 24 hours aerobic with 10% CO2; for MIC: Aggregatibacter actinomycetemcomitans, ATCC43718, read-out: minimum inhibiting concentration MIC, oral organisms
Source text: as §5, §6, §7

[15] = test system: Actinomyces viscosus ATCC 43146; experiment: as above; type: cell-based; conditions: A. viscosus ATCC 43146, 7-10 days at 37° C anaerobic; for MIC: Actinomyces viscosus, ATCC43146, read-out: minimum inhibiting concentration MIC, oral organisms
Source text: as §5, §6, §7

[16] = test system: Fusobacterium nucleatum subsp. polymorphum ATCC 10953; experiment: as above; type: cell-based; conditions: F. nucleatum subsp. polymorphum ATCC 10953, 7-10 days at 37° C anaerobic; for MIC: Fusobacterium nucleatum, ATCC10953, read-out: minimum inhibiting concentration MIC, oral organisms
Source text: as §5, §6, §7

[17] = test system: Prevotella nigrescens ATCC 33563; experiment: as above; type: cell-based; conditions: P. nigrescens ATCC 33563, Columbia bouillon, 7-10 days at 37° C anaerobic; for MIC: Prevotella nigrescens, ATCC33563, read-out: minimum inhibiting concentration MIC, oral organisms
Source text: as §5, §6, §7

[18] = test system: Streptococcus mutans ATCC 33402; experiment: as above; type: cell-based; conditions: S. mutans ATCC 33402, 24 hours aerobic with 10% CO2; for MIC: Streptococcus mutans, ATCC33402, read-out: minimum inhibiting concentration MIC, oral organisms
Source text: as §5, §6, §7

P. gingivalis ATCC 3277 = experiment: as above; type: cell-based, Porphyromonas gingivalis; conditions: 7-10 days at 37° C anaerobic; for MIC: Porphyromonas gingivalis, ATCC3277, Columbia bouillon, read-out: minimum inhibiting concentration MIC, oral organisms
Source text: as §5, §6, §7

SMILES: CCCCCCCCNc1cc(C)nc(NCCCCCCCC)n1 [PY5, N,N′-bis(2,4-dioctylamino)-6-methylpyrimidine]
minimum inhibiting concentration MIC [1]: >1000 ppm
minimum inhibiting concentration MIC [2]: 3.91 ppm
minimum inhibiting concentration MIC (C. xerosis ATCC 373): 7.81 ppm
minimum inhibiting concentration MIC [3]: >1000 ppm
minimum inhibiting concentration MIC ([4]; 24 hours at 37° C.): >1000 ppm
minimum inhibiting concentration MIC ([5]; 24 hours at 37° C.): >1000 ppm
minimum inhibiting concentration MIC ([6]; 24 hours at 37° C.): 250 ppm
minimum inhibiting concentration MIC [7]: 3.91 ppm
minimum inhibiting concentration MIC ([8]; 24 hours at 37° C.): >1000 ppm
minimum inhibiting concentration MIC ([9]; 24 hours at 37° C.): >1000 ppm
minimum inhibiting concentration MIC [10]: >1000 ppm
minimum inhibiting concentration MIC ([11]; 24 hours at 37° C.): 3.91 ppm
minimum inhibiting concentration MIC ([12]; 24 hours at 37° C.): 3.91 ppm
minimum inhibiting concentration MIC ([13]; 24 hours at 37° C.): 3.91 ppm
minimum inhibiting concentration MIC, oral organisms (S. gordonii ATCC 10558; 24 hours aerobic with 10% CO2): 15 ppm
minimum inhibiting concentration MIC, oral organisms [14]: >15 ppm
minimum inhibiting concentration MIC, oral organisms [15]: 3.75 ppm
minimum inhibiting concentration MIC, oral organisms [16]: >15 ppm
minimum inhibiting concentration MIC, oral organisms [17]: 15 ppm
minimum inhibiting concentration MIC, oral organisms [18]: 3.75 ppm
minimum inhibiting concentration MIC, oral organisms (P. gingivalis ATCC 3277; Columbia bouillon): 7.5 ppm

SMILES: Cc1cc(NCc2ccccc2)nc(NCc2ccccc2)n1 [PY8, N,N′-Bis(2,4-dibenzylamino)-6-methylpyrimidine]
MIC [1]: 250 µg/mL
MIC [2]: 15.6 µg/mL
MIC (C. xerosis ATCC 373): 7.8 µg/mL
MIC [3]: 250 µg/mL
MIC [4]: 62.5 µg/mL
MIC [5]: 31.2 µg/mL
MIC [6]: 15.6 µg/mL
MIC [7]: 31.2 µg/mL
MIC [8]: > 500 µg/mL
MIC [9]: > 500 µg/mL
MIC [10]: 62.5 µg/mL
MIC [11]: 31.2 µg/mL
MIC [12]: 31.2 µg/mL
MIC [13]: 31.2 µg/mL
MIC (S. gordonii ATCC 10558): > 15 µg/mL
MIC [14]: > 15 µg/mL
MIC [15]: 3.75 µg/mL
MIC [16]: 15 µg/mL
MIC [17]: 15 µg/mL
MIC [18]: > 15 µg/mL
MIC (P. gingivalis ATCC 3277): 15 µg/mL

SMILES: Cc1cc(NCCc2ccccc2)nc(NCCc2ccccc2)n1 [PY9, N,N′-Bis(2,4-diphenylethylamino)-6-methylpyrimidine]
MIC [1]: 250 µg/mL
MIC [2]: 3.9 µg/mL
MIC (C. xerosis ATCC 373): 1.95 µg/mL
MIC [3]: 62.5 µg/mL
MIC [4]: 250 µg/mL
MIC [5]: 15.6 µg/mL
MIC [6]: 7.8 µg/mL
MIC [7]: 7.8 µg/mL
MIC [8]: > 500 µg/mL
MIC [9]: > 500 µg/mL
MIC [10]: 250 µg/mL
MIC [11]: 7.8 µg/mL
MIC [12]: 7.8 µg/mL
MIC [13]: 7.8 µg/mL
MIC (S. gordonii ATCC 10558): 15 µg/mL
MIC [14]: > 15 µg/mL
MIC [15]: 3.75 µg/mL
MIC [16]: 15 µg/mL
MIC [17]: 7.5 µg/mL
MIC [18]: 15 µg/mL
MIC (P. gingivalis ATCC 3277): 7.5 µg/mL

More lines, main results first:

MIC [1]: 500 µg/mL
MIC [2]: 3.9 µg/mL
MIC (C. xerosis ATCC 373): 3.9 µg/mL
MIC [3]: 250 µg/mL
MIC [4]: 62.5 µg/mL
MIC [5]: 15.6 µg/mL
MIC [6]: 7.8 µg/mL
MIC [7]: 3.9 µg/mL
MIC [8]: > 500 µg/mL
MIC [9]: > 500 µg/mL
MIC [11]: 7.8 µg/mL
MIC [12]: 7.8 µg/mL
MIC [13]: 3.9 µg/mL
MIC (S. gordonii ATCC 10558): 7.5 µg/mL
MIC [14]: > 15 µg/mL
MIC [15]: 3.8 µg/mL
MIC [16]: 3.8 µg/mL
MIC [17]: 3.8 µg/mL
MIC [18]: 7.5 µg/mL
MIC (P. gingivalis ATCC 3277): 3.8 µg/mL
SMILES: CCCCCCCCNc1nc(C)cc(N2CCCC2)n1 [PY44]
MIC [10]: 62.5 µg/mL

MIC [1]: 500 µg/mL
MIC [2]: 3.9 µg/mL
MIC (C. xerosis ATCC 373): 3.9 µg/mL
MIC [3]: 125 µg/mL
MIC [4]: 7.8 µg/mL
MIC [5]: 7.8 µg/mL
MIC [6]: 15.6 µg/mL
MIC [7]: 3.9 µg/mL
MIC [8]: > 500 µg/mL
MIC [9]: > 500 µg/mL
MIC [11]: 7.8 µg/mL
MIC [12]: 3.9 µg/mL
MIC [13]: 7.8 µg/mL
MIC (S. gordonii ATCC 10558): 3.8 µg/mL
MIC [14]: 15 µg/mL
MIC [15]: 3.8 µg/mL
MIC [16]: 7.5 µg/mL
MIC [17]: 3.8 µg/mL
MIC [18]: 7.5 µg/mL
MIC (P. gingivalis ATCC 3277): 3.8 µg/mL
SMILES: CCCCCCCCNc1nc(C)c(CCCCCC)c(NCCOCCOCCN)n1 [PY55]
MIC [10]: 7.8 µg/mL
